Measurements as given in patent publication EP1428520A2, “Lipase inhibitors in deodorants and antiperspirants” (Henkel Kommanditgesellschaft auf Aktien, priority 2002, dated 2004).

System: Lipase (Fa. Sigma) aus Pseudomonas species
Assay: In vitro lipase inhibition test (Lipase Color Liquid assay, photometric release of methylresorufin)
Format: biochemical
Settings: 37°C, pH 8.4, activity without inhibitor = 100%
Text: Die hemmende Wirkung der Enzym-Inhibitoren wurde in vitro an einem geeigneten Modellenzym nachgewiesen. Da eine hautrelevante Lipase nicht zur Verfügung stand, diente die Lipase (Fa. Sigma) aus Pseudomonas species als Modellenzym, um die Hemmwirkung der erfindungsgemäß verwendeten Inhibitoren zu testen. Als Referenz diente Hinokitiol.
Der Nachweis der Lipase-Enzymaktivität erfolgt analog zu den Angaben im Lipase Color Liquid Autom ―Datenblatt der Fa. Sentinel. Hierbei wird die Lipase-katalysierte Spaltung von 1,2-O-dilauryl-rac-glycero-3-glutarsäure-(6'-methylresorufin)-ester in Glutarsäure und Methylresorufin bestimmt. Die Freisetzung des Methylresorufin verursacht eine Purpurfärbung (λ = 580 nm), deren Bildung photometrisch verfolgt wird. [drawing 4]
Der Assay wurde nach Herstellerangaben (37°C, Gesamtvolumen 1.21 ml) durchgeführt und enthielt: 37 mM Tris-Puffer (pH 8.4), 1,6 mM Desoxycholat, 6.6 mM Taurodesoxycholat, 0.9 mg/l Colipase, 1.5 mM Tartrat, 0.1 mM CaCl2 und 0.24 mM 1,2-O-dilauryl-rac-glycero-3-glutaric acid-(6'-methylresorufin)-ester (Substrat). Die Reaktion wurde mit 0.005 U Lipase (10 µl) gestartet und nach einer Inkubation von einer Minute die Zunahme der Absorption bei […] über 2 min verfolgt. Der lineare Anstieg der Absorption (A) pro Zeiteinheit (t) war hierbei ein Maß für die Aktivität des Enzyms (ΔA/Δt). Die Aktivität des Enzyms in Abwesenheit eines Inhibitors, (ΔA1/Δt1 ), wurde als Referenz gleich 100% gesetzt. Unter analogen Bedingungen wurden die Aktivitäten in Gegenwart eines Inhibitors (ΔA2/Δt2) bestimmt. Die Hemmwirkung des Inhibitors bzw. die Minderung der Enzymaktivität entspricht dann: 100% - (ΔA2/Δt2 )/( ΔA1/Δt1 )%.

SMILES: CCCCCCCCCCCC(=O)NC(CCC(=O)O)C(=O)O (stereo not drawn) [Protelan AGL95PV, Natriumlauroylglutamat]
- Hemmwirkung (Minderung der Lipase-Aktivität) (inhibitor concentration 0,01 % (v/v)): 29%
- Hemmwirkung (Minderung der Lipase-Aktivität) (inhibitor concentration 0,1 % (v/v)): 56%
- Hemmwirkung (Minderung der Lipase-Aktivität) (inhibitor concentration 1 % (v/v)): 85%
